Tested on: U266B1 multiple myeloma cells
Experiment: Multiple myeloma growth inhibition (CellTiter-Glo), U266B1
Type: cell-based
Conditions: 48 hours, FIG. 7
Description: (§1) Cryogenically stored RPMI 8226 and U266B1 cells (ATCC, Manassas, Va.) were thawed and cultured according to the vendor's recommendations. Cells were plated in 96-well white-wall tissue culture plates at a concentration of 2×10^5 cells/ml (0.1 ml per well) and incubated overnight at 37° C. in a humidified 5% CO2 atmosphere. Compounds were added to each well at the indicated concentrations (0.5 μl of 200×DMSO stock) and incubated with the cells for 48 hours. Cell viability was detected by adding 100 μl CellTiter-Glo Reagent (Promega, Madison, Wis.) to each well, mixing with pipette, and incubating at room temperature for 10 minutes. Luminescence was read with a DTX 880 Multimode Detector (Beckman Coulter, Fullerton, Calif.). Data was analyzed with SigmaPlot 11 (Systat Software, San Jose, Calif.) software.

For `CN(C)c1ccc(C(=O)NC2=CC(=O)C3OC3C2O)c(O)c1` (racemic) [Example 10, (±)-4-(dimethylamino)-2-hydroxy-N-(2-hydroxy-5-oxo-7-oxabicyclo[4.1.0]hept-3-en-3-yl)benzamide], the “growth inhibition of U266B1 multiple myeloma cells” value was “growth inhibition”.

Tested on: RPMI8226 multiple myeloma cells
Experiment: Multiple myeloma growth inhibition (CellTiter-Glo), RPMI 8226
Type: cell-based
Conditions: 48 hours, FIG. 6
Description: as §1

With `CN(C)c1ccc(C(=O)NC2=CC(=O)C3OC3C2O)c(O)c1` (racemic) [Example 10, (±)-4-(dimethylamino)-2-hydroxy-N-(2-hydroxy-5-oxo-7-oxabicyclo[4.1.0]hept-3-en-3-yl)benzamide] the “growth inhibition of RPMI8226 multiple myeloma cells” value was “growth inhibition”.

Tested on: PGE2 release from RAW264.7 cells
Experiment: LPS-stimulated PGE2 release from RAW264.7 cells (immunoassay)
Type: cell-based
Conditions: Mus musculus, 2 h pretreatment, 1 μg/mL LPS 20-24 h, read-out: RAW 264.7 PGE2 release EC50
Description: RAW 264.7 cells were seeded at 4×10^4 cells per well n complete growth medium in 96 well white TC plates with clear bottoms one day prior to the assay. The next day the cells were washed once and 100 μL fresh growth media was added. Cells were pretreated with 0.5 μL from a 6 point 200× dilution series of the test compounds in DMSO for 2 hours. Following pretreatment with the drugs, the inflammatory response was induced by adding 5 μL of a 20 μg/mL solution of LPS (Sigma). The cells were incubated in the presence of the drugs and 1 μg/mL LPS for another 20-24 hours. Typically after treatment the total DMSO was […] of the culture volume and the final concentrations of the compounds were approximately: 40, 20, 10, 1, 0.2 and 0 μM depending on the MW of each compound. Modified dilution series were prepared as needed to get adequate dose response curves without changing the % DMSO. Samples were run in duplicate or triplicate and included DMSO treated control wells with and without LPS stimulation. Drugs with a known activity such as Parthenolide or DHMEQ were run as experimental controls. After 20-24 hours LPS activation, the media supernatant was collected from the cells and replaced with fresh media. The supernatant samples were cleared by centrifugation at 1,000×g for 5 minutes, transferred to fresh storage plates, and stored frozen at −30° C.
After determining the appropriate supernatant dilutions experimentally, PGE2 levels in the supernatants were quantified using Parameter™ PGE2 Immunoassay (R&D Systems) according to the manufacturer's protocol. 100 µL of the supernatants diluted in Calibrator Diluent and 50 μL of a primary monoclonal anti-PGE2 antibody were added to the microplate wells pre-coated with a goat anti-mouse Ig capture antibody. Then 50 μL of an HRP conjugated PGE2 competitor was added. Controls included non-specific binding (NSB) wells containing Calibrator Diluent but no primary antibody and a recombinant PGE2 standard dilution series (40-5000 pg/mL). The plates were incubated at room temperature for 2 hours with shaking and then washed 5 times with 400 μL 1× Wash Buffer. Equal volumes of Color Reagents A and B were mixed and 200 μL of this HRP Substrate Solution was added to each well on the plate. The blue color was allowed to develop for 30 minutes and then the reaction was stopped using 50 μL of Stop Solution yielding a yellow color. Absorbance at 450 nm with a reference at 595 nm was recorded using a […] DTX 880 Multimode Detector.
The concentration of PGE2 in the unknown samples was determined from a curve-fit of the PGE2 standard absorbance data and multiplying by the dilution factor. The maximum activity achieved in the absence of the inhibitor (DMSO+LPS treated wells) was arbitrarily given a value of 100%; likewise the minimum activity in the absence of the stimulant (no LPS treated wells) was assigned a value of 0%. Inhibition of the amount of PGE2 released in the drug treated wells was calculated relative to the maximum activation in the DMSO+LPS treated control wells (i.e., % inhibition=100−(drug+LPS treated)/(DMSO+LPS treated)). Dose response curves were used to determine the effective concentration to inhibit 50% of the PGE2 released (IC50) by means of a SigmaPlot macro which fits a sigmoidal dose-response curve to the (log 10) μM concentration versus inhibition. […] This technique yields an objective value for the IC50 provided that 50% inhibition was approached at the concentrations tested.

First: O=C(NC1=CC(=O)C2OC2C1O)c1ccc(C(F)(F)F)cc1O (racemic) [Example 1, 2-hydroxy-N-(2-hydroxy-5-oxo-7-oxabicyclo[4.1.0]hept-3-en-3-yl)-4-(trifluoromethyl)benzamide]
Second: O=C(NC1=CC(=O)C2OC2C1O)c1ccc(Cl)cc1O (racemic) [Example 2, (±)-4-chloro-2-hydroxy-N-(2-hydroxy-5-oxo-7-oxabicyclo[4.1.0]hept-3-en-3-yl)benzamide]
The EC50 of the first is 2.3-fold higher: 13.3 µM for the first, 5.9 µM for the second. The second is the more potent here.

First: Cc1ccc(C(=O)NC2=CC(=O)C3OC3C2O)c(O)c1 (racemic) [Example 3, (±)-2-hydroxy-N-(2-hydroxy-5-oxo-7-oxabicyclo[4.1.0]hept-3-en-3-yl)-4-methylbenzamide]
Second: COc1ccc(C(=O)NC2=CC(=O)C3OC3C2O)c(O)c1 (racemic) [Example 5, (±)-2-hydroxy-N-(2-hydroxy-5-oxo-7-oxabicyclo[4.1.0]hept-3-en-3-yl)-4-methoxybenzamide]
The EC50 of the first is 1.8-fold higher: 10 µM for the first, 5.7 µM for the second.

Going from `Cc1cccc(C(=O)NC2=CC(=O)C3OC3C2O)c1O` (racemic) [Example 4, (±)-2-hydroxy-N-(2-hydroxy-5-oxo-7-oxabicyclo[4.1.0]hept-3-en-3-yl)-3-methylbenzamide] to `O=C(NC1=CC(=O)C2OC2C1O)c1cccc(Cl)c1O` (racemic) [Example 6, (±)-3-chloro-2-hydroxy-N-(2-hydroxy-5-oxo-7-oxabicyclo[4.1.0]hept-3-en-3-yl)benzamide], the EC50 rises from 2.6 µM to 7.2 µM (2.8-fold).

For `O=C(NC1=CC(=O)C2OC2C1O)c1cc2ccccc2cc1O` (racemic) [Example 7, (±)-3-hydroxy-N-(2-hydroxy-5-oxo-7-oxabicyclo[4.1.0]hept-3-en-3-yl)-2-naphthamide], the EC50 was 4.6 µM.
